Laboratory results from US9657022B2, “7-OXO-1,6-diazabicyclo[3.2.1]octane derivatives and their use as antibacterial agents” (WOCKHARDT LIMITED, priority 2014, dated 2017).
pIC50: −log10 of the molar value. Converted amounts (≈) assume the structure as drawn. Where two headings read alike, the source gives them in different places.

Columns and labels:
[1] = molecular target: T1, Class C beta-lactamase P99 (E. cloacae J137) (Enterobacter cloacae, UniProt P05364); assay: Beta-lactamase enzyme inhibition (Nitrocefin, crude enzyme); assay type: biochemical
T1 construct: preincubated mixture of crude enzyme and the compounds; endogenous in cells; host or cells: E. cloacae J137
T1 sequence (P05364 21-381): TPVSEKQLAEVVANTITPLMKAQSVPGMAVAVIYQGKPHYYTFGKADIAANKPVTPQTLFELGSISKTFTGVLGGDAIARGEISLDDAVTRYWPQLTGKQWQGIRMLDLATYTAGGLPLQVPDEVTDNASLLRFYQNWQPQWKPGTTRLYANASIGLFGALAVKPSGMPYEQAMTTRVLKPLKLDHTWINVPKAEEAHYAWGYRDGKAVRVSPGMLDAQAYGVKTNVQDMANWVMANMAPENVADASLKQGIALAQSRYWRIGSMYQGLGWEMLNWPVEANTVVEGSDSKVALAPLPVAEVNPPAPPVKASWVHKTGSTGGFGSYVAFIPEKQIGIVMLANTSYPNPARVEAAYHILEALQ
Protocol: (§1) Absorbance was measured at 485 nm by UV-spectrophotometer. The IC50 was calculated by plotting absorbance against concentration through Sigmoidal dose response curve using Graph Pad software.

[2] = molecular target: Class D beta-lactamase OXA 26 (A. baumannii NCTC 13303) (Acinetobacter baumannii, UniProt Q9F0V2); assay: as above; assay type: biochemical; details: A. baumannii NCTC 13303 (OXA 26), read-out: Beta-lactamase enzyme inhibition IC50
Sequence of Class D beta-lactamase OXA 26 (A. baumannii NCTC 13303) (Q9F0V2 entry or part of it): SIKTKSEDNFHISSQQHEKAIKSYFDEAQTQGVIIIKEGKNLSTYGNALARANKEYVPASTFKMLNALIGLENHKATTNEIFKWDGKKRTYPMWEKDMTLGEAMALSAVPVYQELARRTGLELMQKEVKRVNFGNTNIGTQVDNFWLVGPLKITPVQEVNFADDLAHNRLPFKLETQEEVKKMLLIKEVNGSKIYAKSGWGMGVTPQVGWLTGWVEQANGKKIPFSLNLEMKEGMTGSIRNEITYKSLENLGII
Protocol: as §1

[3] = system: E. coli NCTC 13353 (CTX-M15, OXA-1); assay: Antibacterial activity (MIC), agar dilution per CLSI; assay type: cell-based; details: Escherichia coli, NCTC13353; E. coli NCTC 13353 (CTX-M15, OXA-1); read-out: MIC
Protocol: (§2) The biological activity of representative compounds according to the invention against various bacterial strains was investigated. In a typical study, overnight grown bacterial cultures were diluted appropriately and inoculated on the agar media containing doubling dilutions of the test compounds. Observations for growth or no growth was performed after 16-20 hours of incubation at 35±2° C. in the ambient air. The overall procedure was performed as per Clinical and Laboratory Standards Institute (CLSI) recommendations, (Clinical and Laboratory Standards Institute (CLSI), Performance Standards for Antimicrobial Susceptibility Testing, 20th Informational Supplement, M07-A9, Volume 32, No. 2, 2012). Molten Mueller Hinton Agar (BD, USA) containing serial dilutions of each antibacterial agent were poured on to the plates and allowed to solidify. Appropriate suspensions from the freshly grown cultures were prepared in normal saline so that about 10^4 CFU/spot of the organism was delivered on to the drug containing agar plates using automated multipoint inoculator (Mast, UK). The plates were incubated in Biochemical oxygen demand (BOD) incubator at 37° C. for 18 hours and then examined for growth.
(§3) The strains selected for study included E. coli NCTC 13353 producing CTX-M15 and OXA-1 beta-lactamase enzymes; K. pneumoniae H521 producing KPC, SHV, TEM beta-lactamase enzymes; and K. pneumoniae S48 producing NDM, SHV, TEM beta-lactamase enzymes. The activities are expressed as Minimum Inhibitory Concentrations (MICs) (mcg/ml).
(§4) The activities are expressed as Minimum Inhibitory Concentrations (MICs) (mcg/ml).

[4] = system: K. pneumoniae H521 (KPC, SHV, TEM); assay: as above; assay type: cell-based; details: Klebsiella pneumoniae; K. pneumoniae H521 (KPC, SHV, TEM); read-out: MIC
Protocol: as §2, §3, §4

[5] = system: Class C beta-lactamase CMY/DHA (E. coli M50); assay: Beta-lactamase enzyme inhibition (Nitrocefin, crude enzyme); assay type: biochemical
Protocol: as §1
The enzyme inhibition was expressed as IC50.

E. coli NCTC 13351 = assay: Antibacterial activity (MIC), agar dilution per CLSI; assay type: cell-based; details: Escherichia coli, NCTC13351
Protocol: as §2
(§5) Table 3 details the antibacterial activity of representative compound of Formula (I), (2S,5R)-sulfuric acid mono-{2-[N′-(2-(S)-pyrrolidin-2-yl-acetyl)-hydrazinocarbonyl]-7-oxo-1,6-diaza-bicyclo[3.2.1]oct-6-yl}ester (Compound of Example 1), against various Multi Drug Resistant (MDR) Gram-negative bacterial strains. The activities are expressed as Minimum Inhibitory Concentrations (MICs) (mcg/ml).

K. pneumoniae H 525 = assay: as above; assay type: cell-based; details: Klebsiella pneumoniae, H525
Protocol: as §2, §5

P. aeruginosa ATCC 27853 = assay: as above; assay type: cell-based; details: Pseudomonas aeruginosa, ATCC27853
Protocol: as §2, §5

K. pneumoniae B 88 = assay: as above; assay type: cell-based; details: Klebsiella pneumoniae, B88
Protocol: as §2, §5

E. cloacae M 20 = assay: as above; assay type: cell-based; details: Enterobacter cloacae, M20
Protocol: as §2, §5

P. aeruginosa R 20 = assay: as above; assay type: cell-based; details: Pseudomonas aeruginosa, R20
Protocol: as §2, §5

C. frundaii 58 MP = assay: as above; assay type: cell-based
Protocol: as §2, §5

P. aeruginosa 2779 = assay: as above; assay type: cell-based; details: Pseudomonas aeruginosa
Protocol: as §2, §5

E. coli NCTC 13352 = assay: as above; assay type: cell-based; details: Escherichia coli, NCTC13352
Protocol: as §2, §5

E. coli M 50 = assay: as above; assay type: cell-based; details: Escherichia coli, M50
Protocol: as §2, §5

K. pneumoniae S 21 = assay: as above; assay type: cell-based; details: Klebsiella pneumoniae, S21
Protocol: as §2, §5

E. coli 7 MP = assay: as above; assay type: cell-based; details: Escherichia coli
Protocol: as §2, §5

E. coli M 49 = assay: as above; assay type: cell-based; details: Escherichia coli, M49
Protocol: as §2, §5

P. aeruginosa PAO1 = assay: as above; assay type: cell-based; details: Pseudomonas aeruginosa
Protocol: as §2, §5

E. coli M50 = assay: Zone of inhibition, agar well, with and without ceftazidime; assay type: cell-based; details: E. coli M50
Protocol: (§6) In a typical experiment, two sets of plates containing growth media (Molten Mueller Hilton Agar) and bacterial strains were prepared. One set of plates was taken as control (without ceftazidime) and other set contained ceftazidime. The media was allowed to solidify and wells were punched later, into which varying concentrations of compounds according to the invention were poured. A two-fold serial dilution range of each of the compounds according to invention was prepared and 50 μl of each of the dilution was added into the punched well. The plates were then incubated at 37° C. for 18 hours in BOD incubator and diameters of zone of inhibition were measured after the completion of the incubation.
(§7) The Table 6 provides the antibacterial activity of the combination comprising compounds according to invention and ceftazidime. The compounds according to invention were tested at 0.12, 0.25, 0.5 and 1 μg/well.

E. coli NCTC 13353 = assay: as above; assay type: cell-based; details: E. coli NCTC 13353
Protocol: as §6, §7

[6] = compound 0.25 μg/well + Ceftazidime 10 μg/ml
[7] = compound 0.5 μg/well + Ceftazidime 10 μg/ml
[8] = compound 1 μg/well + Ceftazidime 10 μg/ml
[9] = compound […] + Ceftazidime 10 μg/ml

`O=C(C[C@@H]1CCCN1)NNC(=O)[C@@H]1CC[C@@H]2CN1C(=O)N2OS(=O)(=O)O` [Example 1, (2S,5R)-Sulfuric acid mono-{2-[N′-(2-(S)-pyrrolidin-2-yl-acetyl)-hydrazinocarbonyl]-7-oxo-1,6-diaza-bicyclo[3.2.1]oct-6-yl}ester] gave a pIC50 [1] of 7.57, a pIC50 [2] of 5.32 and an MIC [3] of 0.5 µg/mL (≈ 1.28 µM). It also gave an MIC [4] of 0.5 µg/mL (≈ 1.28 µM), a pIC50 [5] of 7.22 and a pIC50 ([5]; listed as Compound of Example 1) of 7.19. It also gave an MIC (E. coli NCTC 13351) of 0.5 µg/mL (≈ 1.28 µM), an MIC (K. pneumoniae H 525) of 0.5 µg/mL (≈ 1.28 µM) and an MIC (P. aeruginosa ATCC 27853) of 8 µg/mL (≈ 20.4 µM). The MIC (K. pneumoniae B 88) was 0.5 µg/mL (≈ 1.28 µM), the MIC (E. cloacae M 20) was 0.5 µg/mL (≈ 1.28 µM) and the MIC (P. aeruginosa R 20) was 16 µg/mL (≈ 40.9 µM). For the same compound, the MIC (C. frundaii 58 MP) was 0.5 µg/mL (≈ 1.28 µM), the MIC (P. aeruginosa 2779) was 8 µg/mL (≈ 20.4 µM) and the MIC (E. coli NCTC 13352) was 0.5 µg/mL (≈ 1.28 µM). It also gave an MIC (E. coli M 50) of 0.5 µg/mL (≈ 1.28 µM), an MIC (K. pneumoniae S 21) of 2 µg/mL (≈ 5.11 µM) and an MIC (E. coli 7 MP) of 1 µg/mL (≈ 2.55 µM). For the same compound, the MIC (E. coli M 49) was 2 µg/mL (≈ 5.11 µM), the MIC (P. aeruginosa PAO1) was 4 µg/mL (≈ 10.2 µM) and the “Diameter of Zone of Inhibition, Compound + Ceftazidime (10 μg/ml)” value (“Diameter of Zone of Inhibition” below) (E. coli M50; [6]) was 19 mm. For the same compound, the “Diameter of Zone of Inhibition” value (E. coli M50; [7]) was 20.5 mm, the “Diameter of Zone of Inhibition” value (E. coli M50; [8]) was 22.5 mm and the “Diameter of Zone of Inhibition” value (E. coli M50; [9]) was 17 mm. The zone of inhibition at […] (E. coli M50; Escherichia coli, compound alone, 0.12 μg/well, read-out: Diameter of Zone of Inhibition, Compound) was 10.5 mm, the zone of inhibition at 0.25 µg/disc (E. coli M50; Escherichia coli, compound alone, 0.25 μg/well, read-out: Diameter of Zone of Inhibition, Compound) was 14 mm and the zone of inhibition at 0.5 µg/disc (E. coli M50; Escherichia coli, compound alone, 0.5 μg/well, read-out: Diameter of Zone of Inhibition, Compound) was 16 mm. The zone of inhibition at 1 µg/disc (E. coli M50; Escherichia coli, compound alone, 1 μg/well, read-out: Diameter of Zone of Inhibition, Compound) was 18 mm, the “Diameter of Zone of Inhibition” value (E. coli NCTC 13353; [6]) was 26 mm and the “Diameter of Zone of Inhibition” value (E. coli NCTC 13353; [7]) was 28 mm. The “Diameter of Zone of Inhibition” value (E. coli NCTC 13353; [8]) was 31 mm, the “Diameter of Zone of Inhibition” value (E. coli NCTC 13353; [9]) was 22 mm and the zone of inhibition at […] (E. coli NCTC 13353; Escherichia coli, NCTC13353, compound alone, 0.12 μg/well, read-out: Diameter of Zone of Inhibition, Compound) was 11.5 mm. For the same compound, the zone of inhibition at 0.25 µg/disc (E. coli NCTC 13353; Escherichia coli, NCTC13353, compound alone, 0.25 μg/well, read-out: Diameter of Zone of Inhibition, Compound) was 14 mm, the zone of inhibition at 0.5 µg/disc (E. coli NCTC 13353; Escherichia coli, NCTC13353, compound alone, 0.5 μg/well, read-out: Diameter of Zone of Inhibition, Compound) was 15 mm and the zone of inhibition at 1 µg/disc (E. coli NCTC 13353; Escherichia coli, NCTC13353, compound alone, 1 μg/well, read-out: Diameter of Zone of Inhibition, Compound) was 16.5 mm.
